Measurements: patent publication US12453740B2, “Nucleic acids for cell recognition and integration” (Emory University, priority 2018, dated 2025)

Legend:
[1] = tested on: chromosomes of plasma cells; assay: Incorporation of labeled ctDNA into chromosomes with NHEJ, PARP and integrase inhibitors (Example 6); format: cell-based, human; details: DNA-PKCS inhibitor I 200 nM; KU-55933; raltegravir 30 nM; NU1025 200 nM
Experimental: For further evaluation, chromosome spreads from MM and lung cancer cell lines were cultured with covalently labeled ctDNA obtained from patients with MM.

[2] = tested on: MM (MM1S), PC (ASPC-1), and CC (HCT 116) cell lines; assay: ctDNA integration with NHEJ, alternative pathway and transposase inhibitors (Example 25); format: cell-based, human; details: 2 hours pretreatment; DNA-PKCS inhibitor I 30 μM, KU-55933 10 μM, raltegravir 100 nM; compared to control or NU1025 200 μM
Experimental: About 10^6 MM1s, PANC1 and HCT-116 cells were treated for 2 hours with inhibitors of the non-homologous end join (NHEJ) repair system such as KU-55933 (ATM inhibitor, 10 μM) and DNA-PKCS inhibitor I, (30 μM), alternative repair pathway such as a poly ADP ribose polymerase inhibitor NU1025 (PARP, 200 μM) and an integrase/transposase inhibitor (raltegravir, 100 nM). After treatment with inhibitors, rhodamine-labeled ctDNA construct was added to the culture media for 24 hours. Cells were then arrested, and chromosome spreads were obtained as noted above. Integration site counts per cell were obtained after counting a minimum of 20 metaphases (FIG. 32).
Transposable elements (TEs) can play an important role in the mechanism of HGT observed in prokaryotes and few cases of eukaryotes (insects and plants). Thus, it was investigated whether inhibition of transposable elements could reduce or prevent ctDNA integration into chromatids. To that end, cells were treated for 2 hours with raltegravir, a transposase inhibitor, before the addition of ctDNA into culture media. For controls, inhibitors of ATM (KU-55933), DNPkc (DNA-PKCS inhibitor I) and PARP (NU1025) were used. […]

Structure (SMILES)	Incorporation of labeled ctDNA into chromosomes [1]	integration of ctDNA (rhodamine bands into the chromosomes) [2]
O=c1cc(-c2cccc3c2Sc2ccccc2S3)oc(N2CCOCC2)c1 [KU-55933]	reduced significantly	significantly reduced
Cc1nc2c(O)cccc2c(=O)[nH]1 [NU1025]	less so	
Cc1nnc(C(=O)NC(C)(C)c2nc(C(=O)NCc3ccc(F)cc3)c(O)c(=O)n2C)o1 [raltegravir]	reduced significantly	significantly reduced
